Data as given in patent US7993884B2, “Beta-xylosidase for conversion of plant cell wall carbohydrates to simple sugars” (The United States of America as represented by the …, priority 2006, dated 2011).

Molecular target: SXA (Selenomonas ruminantium, UniProt O52575)
Assay: SXA-catalyzed hydrolysis of 4NP-glycoside substrates, initial rates (Methods A and B);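 note: initial rates from 4-nitrophenol release, tracked by absorbance over roughly 0.3 min and converted using product-minus-substrate extinction differences, in 1 mL mixtures started by enzyme addition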
Type: biochemical
Conditions: 5 mM 4NP glycoside, 100 mM succinate-NaOH, pH 5.3, 25° C., Method A; initial rate relative to 4NPX

In the case of `O=[N+]([O-])c1ccc(O[C@H]2O[C@H](CO)[C@@H](O)[C@H](O)[C@H]2O)cc1` [4-Nitrophenyl-α D-glucopyranoside], the “Relative Rate” value was <10^−6.

With `O=[N+]([O-])c1ccc(O[C@H]2O[C@H](CO)[C@H](O)[C@H](O)[C@H]2O)cc1` [4-Nitrophenyl-α-D-galactopyranoside] the “Relative Rate” value was <10^−6.

In the case of `O=[N+]([O-])c1ccc(O[C@H]2O[C@H](CO)[C@@H](O)[C@H](O)[C@@H]2O)cc1` [4-Nitrophenyl-α-D-mannopyranoside], the “Relative Rate” value was <10^−6.

With `O=[N+]([O-])c1ccc(O[C@H]2OC[C@@H](O)[C@H](O)[C@H]2O)cc1` [4-Nitrophenyl-α-D-xylopyranoside] the “Relative Rate” value was <10^−6.

In the case of `O=[N+]([O-])c1ccc(O[C@@H]2OC[C@H](O)[C@H](O)[C@H]2O)cc1` [4-Nitrophenyl-α-L-arabinopyranoside], the “Relative Rate” value was <10^−6.

In the case of `C[C@@H]1O[C@@H](Oc2ccc([N+](=O)[O-])cc2)[C@@H](O)[C@H](O)[C@@H]1O` [4-Nitrophenyl-α-L-fucopyranoside], the “Relative Rate” value was <10^−6.

With `C[C@@H]1O[C@@H](Oc2ccc([N+](=O)[O-])cc2)[C@H](O)[C@H](O)[C@H]1O` [4-Nitrophenyl-α-L-rhamnopyranoside] the “Relative Rate” value was <10^−6.

`C[C@H]1O[C@@H](Oc2ccc([N+](=O)[O-])cc2)[C@H](O)[C@@H](O)[C@H]1O` [4-Nitrophenyl-β-D-fucopyranoside] was tested, and the “Relative Rate” value was <10^−6.

With `O=[N+]([O-])c1ccc(O[C@@H]2O[C@H](CO)[C@H](O)[C@H](O)[C@H]2O)cc1` [4-Nitrophenyl-β-D-galactopyranoside] the “Relative Rate” value was <10^−6.

`O=[N+]([O-])c1ccc(O[C@@H]2O[C@H](CO)[C@@H](O)[C@H](O)[C@H]2O)cc1` [4-Nitrophenyl-β-D-glucopyranoside] was tested, and the “Relative Rate” value was <10^−6.

With `O=[N+]([O-])c1ccc(O[C@@H]2O[C@H](CO)[C@@H](O)[C@H](O)[C@@H]2O)cc1` [4-Nitrophenyl-β-D-mannopyranoside] the “Relative Rate” value was <10^−6.
